In assay [1] the test system is A-375. As to the kind of experiment: MITF: Counter assay: A375 proliferation Measured in Cell-Based System Using Plate Reader - 2084-03_Inhibitor_Dose_DryPowder_Activity. [Related pubchem assays (depositor defined):AID488944]. Type of assay: functional. Conditions: Homo sapiens.
Assay [2] has as its system A-375. As to the kind of experiment: A375 melanoma cell viability reduction, dose response, counter-screen for MITF modulator project, cherry-pick samples, set 2 (AID 540335). The class given is functional, cell-based. The settings on record: Homo sapiens.
A short description of assay [3]: inhibitors of firefly luciferase expression or activity, dose response, H4 neuroglioma cells, luminescence (AID 1990). The class given is functional, cell-based.
Assay [4] in a line: inhibitors of SNCA 5'UTR-driven reporter translation, confirmation, H4 neuroglioma cells, luminescence (AID 1988). The class given is functional, cell-based.
The subject of assay [5] is Escherichia coli. The experiment in a line: microbe, parasite or virus in culture.
Assay [6] is described as follows: Luminescence Cell-Based Dose Response HTS to Identify Inhibitors of 5'UTR Stem-Loop Driven Prion Protein mRNA Translation in H4 Neuroglioblastoma Cells. [Related pubchem assays: 1827 (Project Summary), 1813 (Primary HTS)]. Type of assay: functional.
Assay [7] relates to Escherichia coli. The experiment in a line: microbe, parasite or virus in culture. This is another data set of the same source.
The target in assay [8] is Latent membrane protein 1 (Human herpesvirus 4 (strain B95-8), UniProt P03230). As to the kind of experiment: TES1-eGFP NF-kB reporter inhibition versus Tet-On dsRED, dose response, selectivity assay for LMP1 NF-kB inhibitor project, imaging, HEK293T, dual-color eGFP/dsRED, cherry-picks (AID 588398). Type of assay: functional, cell-based.
Chain of Latent membrane protein 1 (P03230 whole entry): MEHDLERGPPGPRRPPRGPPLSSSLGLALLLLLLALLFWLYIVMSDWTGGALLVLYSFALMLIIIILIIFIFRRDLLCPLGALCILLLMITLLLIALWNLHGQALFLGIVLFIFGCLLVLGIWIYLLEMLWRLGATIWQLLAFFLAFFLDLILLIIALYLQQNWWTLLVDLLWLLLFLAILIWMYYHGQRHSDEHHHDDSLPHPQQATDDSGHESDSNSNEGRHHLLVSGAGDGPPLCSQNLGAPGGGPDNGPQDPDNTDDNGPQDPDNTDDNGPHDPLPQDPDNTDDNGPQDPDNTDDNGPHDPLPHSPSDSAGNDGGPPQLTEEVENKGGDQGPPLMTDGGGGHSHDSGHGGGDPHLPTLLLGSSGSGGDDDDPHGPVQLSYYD
Assay [9] deals with Streptococcus sp. 'group A'. As to the kind of experiment: growth inhibition of control SK(-) GAS strain, dose response, counter-screen for streptokinase expression inhibitor project, luminescence, kanamycin, BacTiterGlo, confirmation (AID 1900). The class given is functional, organism-based. For orientation: Counterscreens check selectivity or assay interference.
For a further assay, the system named is Streptococcus. As to the kind of experiment: Group A Streptococcus viability loss, dose response, counter-screen for streptokinase expression inhibitor project, luminescence, BacTiterGlo (AID 1915).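 Also: potency for reduction of bacterial viability or growth.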 The class given is functional, organism-based.
The next assay has as its system HEK293. As to the kind of experiment: inhibitors of LMP1-driven NF-kB reporter, dose response, cell-based, HEK293, luciferase, cherry-pick (AID 588343). Type of assay: functional. Conditions: Homo sapiens.
A further assay deals with T1, Streptokinase A (Streptococcus pyogenes serotype M1, UniProt P10520).
T1 sequence (P10520 whole entry): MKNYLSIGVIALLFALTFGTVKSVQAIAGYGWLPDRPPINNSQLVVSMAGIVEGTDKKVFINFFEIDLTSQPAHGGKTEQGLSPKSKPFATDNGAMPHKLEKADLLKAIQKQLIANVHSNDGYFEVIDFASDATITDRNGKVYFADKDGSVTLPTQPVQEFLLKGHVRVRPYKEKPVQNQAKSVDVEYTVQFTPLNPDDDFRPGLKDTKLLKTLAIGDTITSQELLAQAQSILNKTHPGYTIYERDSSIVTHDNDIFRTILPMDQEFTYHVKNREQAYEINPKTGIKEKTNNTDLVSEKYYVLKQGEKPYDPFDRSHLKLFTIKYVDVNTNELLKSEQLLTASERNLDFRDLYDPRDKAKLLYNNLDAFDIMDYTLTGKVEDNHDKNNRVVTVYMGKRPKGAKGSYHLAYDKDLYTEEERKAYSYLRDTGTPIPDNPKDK
The experiment in a line: S. pyogenes streptokinase expression inhibitors, potency, dose response, plasminogen activation absorbance, OD405 (AID 1914).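 Also: secreted streptokinase activity via plasminogen activation per viability signal from cell pellet.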 The class given is functional, Streptococcus pyogenes M1 GAS.

Assay [10] can be described thus: inhibitors of intracellular T. cruzi replication, confirmation, NIH3T3 host cells, beta-gal luminescence (AID 2044).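 Also: intracellular parasites grown in NIH/3T3 mouse fibroblasts as host cells; luminescent beta-galactosidase reporter signal from transgenic T. cruzi replicating inside host cells; inhibitors lower the luminescence signal.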 Type of assay: functional, cell-based.
A further assay deals with INS1. The experiment in a line: beta cell apoptosis inhibitors, cytokine rescue, dose response, luminescence, retest (AID 449756).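 Also: cell death triggered by IL-1 beta plus TNF-alpha plus IFN-gamma mixture; protective hits raise ATP signal compared with cytokine alone wells.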 The class given is functional, cell-based. Conditions: Rattus norvegicus.
The nature of assay [11]: cytotoxicity toward NIH3T3 fibroblasts, dose response, counter-screen, cell-based, ATP luminescence, mouse fibroblasts (AID 2010).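 Also: cells exposed to compound for about 90 hours before reading.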 The class given is functional.
Assay [12] relates to Candida albicans. As to the kind of experiment: reversal of fluconazole resistance in C. albicans, dose response, CaCi-2 strain, Alamar Blue, dry powder, set 3 (AID 488907). Type of assay: functional, organism-based. Background: The colour change of resazurin is a common sign of viable cells or microbes.
Assay [13] concerns Candida albicans. The experiment in a line: growth inhibition of azole-resistant C. albicans, dose response, CaCi-8 strain, Alamar Blue, dry powder, set 3 (AID 488905). Type of assay: functional, organism-based.
For assay [14], the system named is Candida albicans. As to the kind of experiment: growth inhibition of resistant C. albicans, dose response, CaCi-8 strain, fluconazole, dry powder, set 4 (AID 488950). The class given is functional, organism-based.
In assay [15] the test system is Candida albicans. As to the kind of experiment: fluconazole resistance reversal in C. albicans, dose response, CaCi-2 strain, Alamar Blue, dry powder, set 4 (AID 488943). The class given is functional, organism-based.
Another assay concerns the target Hexokinase-1 (Homo sapiens, UniProt P19367). As to the kind of experiment: HK1 enzyme inhibition by HKDC1 hits, SAR follow-up, selectivity assay for HKDC1 inhibitor project, biochemical, set 2, resazurin fluorescence coupled readout (AID 588356). Type of assay: functional.
The target in another assay is T2, Hexokinase HKDC1 (Homo sapiens, UniProt Q2TB90).
T2 sequence (Q2TB90 whole entry): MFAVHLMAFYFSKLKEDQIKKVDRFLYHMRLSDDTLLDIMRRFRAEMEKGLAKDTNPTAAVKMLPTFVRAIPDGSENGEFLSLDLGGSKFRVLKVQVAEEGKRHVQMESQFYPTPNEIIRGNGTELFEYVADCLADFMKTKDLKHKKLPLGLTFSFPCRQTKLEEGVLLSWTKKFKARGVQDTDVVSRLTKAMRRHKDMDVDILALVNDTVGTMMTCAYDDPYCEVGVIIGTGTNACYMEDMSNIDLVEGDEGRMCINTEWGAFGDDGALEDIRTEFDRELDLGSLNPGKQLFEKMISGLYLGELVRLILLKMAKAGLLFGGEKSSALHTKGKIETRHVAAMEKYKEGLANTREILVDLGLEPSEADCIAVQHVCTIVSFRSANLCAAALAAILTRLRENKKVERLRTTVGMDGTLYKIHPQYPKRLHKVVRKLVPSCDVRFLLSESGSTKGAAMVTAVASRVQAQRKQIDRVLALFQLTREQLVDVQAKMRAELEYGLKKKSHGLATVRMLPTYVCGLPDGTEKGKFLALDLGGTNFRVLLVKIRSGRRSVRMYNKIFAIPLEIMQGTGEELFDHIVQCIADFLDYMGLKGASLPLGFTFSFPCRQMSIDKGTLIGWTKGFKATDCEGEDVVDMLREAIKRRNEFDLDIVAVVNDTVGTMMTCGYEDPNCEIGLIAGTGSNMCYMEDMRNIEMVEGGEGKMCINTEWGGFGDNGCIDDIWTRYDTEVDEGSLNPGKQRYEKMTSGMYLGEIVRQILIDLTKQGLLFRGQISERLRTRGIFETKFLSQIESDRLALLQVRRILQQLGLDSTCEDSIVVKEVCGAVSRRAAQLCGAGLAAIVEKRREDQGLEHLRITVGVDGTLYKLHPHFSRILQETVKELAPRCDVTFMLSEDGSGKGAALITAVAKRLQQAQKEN
The experiment in a line: HKDC1 hexokinase inhibitors, SAR follow-up, biochemical, set 2 (AID 588355). The class given is functional.

Another assay has as its target Phospholipase D2 (Homo sapiens, UniProt O14939). The experiment in a line: PLD2 inhibitor potency in cells, dose response (AID 602147).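 Also: cellular assay in HEK293 cells overexpressing GFP-tagged PLD2.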 The class given is functional.
For another assay, the target named is Phospholipase D1 (Homo sapiens, UniProt Q13393). The experiment in a line: PLD1 inhibitor potency in cells, dose response (AID 602151).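 Also: cellular PLD1 assay in Calu-1 cells stimulated with PMA.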 The class given is functional.
Chain of Phospholipase D1 (Q13393 whole entry): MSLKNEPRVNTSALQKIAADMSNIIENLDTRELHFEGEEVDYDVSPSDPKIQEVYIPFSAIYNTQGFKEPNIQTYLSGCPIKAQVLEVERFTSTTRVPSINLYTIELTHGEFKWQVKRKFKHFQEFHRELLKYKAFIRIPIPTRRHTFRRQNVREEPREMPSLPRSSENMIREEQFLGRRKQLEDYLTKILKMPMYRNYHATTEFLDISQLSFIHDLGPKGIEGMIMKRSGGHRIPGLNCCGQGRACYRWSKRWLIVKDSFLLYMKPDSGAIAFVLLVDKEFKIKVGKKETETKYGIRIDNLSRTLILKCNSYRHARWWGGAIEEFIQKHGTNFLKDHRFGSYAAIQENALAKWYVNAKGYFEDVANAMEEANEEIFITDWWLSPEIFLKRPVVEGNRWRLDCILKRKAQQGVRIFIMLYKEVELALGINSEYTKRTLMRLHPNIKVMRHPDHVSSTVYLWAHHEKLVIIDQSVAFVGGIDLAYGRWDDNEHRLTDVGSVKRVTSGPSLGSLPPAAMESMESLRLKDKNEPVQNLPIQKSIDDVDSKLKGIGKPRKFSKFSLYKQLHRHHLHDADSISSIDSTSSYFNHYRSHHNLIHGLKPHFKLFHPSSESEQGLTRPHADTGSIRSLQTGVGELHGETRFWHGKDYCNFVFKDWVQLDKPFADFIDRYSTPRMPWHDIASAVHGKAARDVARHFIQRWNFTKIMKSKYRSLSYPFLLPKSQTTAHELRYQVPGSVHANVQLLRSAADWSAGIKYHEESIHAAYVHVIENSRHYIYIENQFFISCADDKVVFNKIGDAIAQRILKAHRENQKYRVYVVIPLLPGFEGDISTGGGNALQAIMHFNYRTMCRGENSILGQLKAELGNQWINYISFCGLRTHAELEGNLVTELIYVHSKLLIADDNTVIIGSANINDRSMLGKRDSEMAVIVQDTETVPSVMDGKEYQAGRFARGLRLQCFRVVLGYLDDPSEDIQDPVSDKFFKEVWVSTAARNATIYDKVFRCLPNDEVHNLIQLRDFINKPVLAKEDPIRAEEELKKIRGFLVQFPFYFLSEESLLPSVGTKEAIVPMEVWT
In a further assay the target is Beta-galactosidase (Escherichia coli, UniProt Q8VNN2). The experiment in a line: PubChem AID 485352. Type of assay: functional.
Chain of Beta-galactosidase (Q8VNN2 whole entry): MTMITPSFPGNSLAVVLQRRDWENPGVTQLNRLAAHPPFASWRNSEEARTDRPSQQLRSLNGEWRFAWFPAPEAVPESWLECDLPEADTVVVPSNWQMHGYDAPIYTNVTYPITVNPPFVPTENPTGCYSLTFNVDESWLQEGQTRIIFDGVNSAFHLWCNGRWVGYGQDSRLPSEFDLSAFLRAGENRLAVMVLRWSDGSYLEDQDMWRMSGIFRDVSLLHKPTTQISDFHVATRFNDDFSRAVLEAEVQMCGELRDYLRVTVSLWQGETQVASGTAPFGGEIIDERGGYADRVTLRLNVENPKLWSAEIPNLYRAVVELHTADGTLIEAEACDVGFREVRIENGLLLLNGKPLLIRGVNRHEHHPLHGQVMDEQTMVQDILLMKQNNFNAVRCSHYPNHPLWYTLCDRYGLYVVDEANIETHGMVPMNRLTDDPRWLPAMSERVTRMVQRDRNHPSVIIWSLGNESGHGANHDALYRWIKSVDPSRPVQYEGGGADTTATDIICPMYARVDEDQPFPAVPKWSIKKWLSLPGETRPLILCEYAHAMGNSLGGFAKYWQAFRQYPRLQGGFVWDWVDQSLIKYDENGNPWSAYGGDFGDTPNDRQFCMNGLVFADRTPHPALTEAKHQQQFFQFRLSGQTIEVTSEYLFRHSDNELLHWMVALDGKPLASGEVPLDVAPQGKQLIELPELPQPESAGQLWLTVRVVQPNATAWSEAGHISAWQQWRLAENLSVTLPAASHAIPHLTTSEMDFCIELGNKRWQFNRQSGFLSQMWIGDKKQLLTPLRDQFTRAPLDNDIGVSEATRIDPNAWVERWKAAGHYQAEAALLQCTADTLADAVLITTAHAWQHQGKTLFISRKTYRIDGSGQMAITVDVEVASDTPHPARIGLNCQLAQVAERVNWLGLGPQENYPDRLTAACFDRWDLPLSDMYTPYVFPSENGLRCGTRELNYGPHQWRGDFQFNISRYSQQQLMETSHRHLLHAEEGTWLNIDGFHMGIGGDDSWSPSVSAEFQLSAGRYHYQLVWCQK
Assay [16] deals with Type-1 angiotensin II receptor (Homo sapiens, UniProt P30556). The experiment in a line: AT1 receptor antagonists, dose response, selectivity assay for APJ receptor antagonist project, cell-based, uHTS hits (AID 463214).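 Also: antagonist potency against angiotensin II stimulated AT1 response.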 The class given is functional.
Chain of Type-1 angiotensin II receptor (P30556 whole entry): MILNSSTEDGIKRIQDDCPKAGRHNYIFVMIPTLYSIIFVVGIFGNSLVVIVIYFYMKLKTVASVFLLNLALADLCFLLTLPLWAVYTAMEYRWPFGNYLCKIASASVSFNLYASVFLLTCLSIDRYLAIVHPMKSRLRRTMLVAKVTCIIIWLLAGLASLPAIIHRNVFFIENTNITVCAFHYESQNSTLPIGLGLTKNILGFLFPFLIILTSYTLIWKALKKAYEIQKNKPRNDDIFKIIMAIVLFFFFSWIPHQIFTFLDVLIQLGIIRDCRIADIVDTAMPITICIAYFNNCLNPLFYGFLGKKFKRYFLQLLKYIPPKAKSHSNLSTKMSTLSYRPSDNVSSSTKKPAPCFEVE
The target of assay [17] is Mitochondrial peptide methionine sulfoxide reductase (Bos taurus, UniProt P54149). The experiment in a line: Absorbance-based biochemical high throughput dose response assay for activators of Methionine sulfoxide reductase A (MsrA). The class given is functional.
Chain of Mitochondrial peptide methionine sulfoxide reductase (P54149 whole entry): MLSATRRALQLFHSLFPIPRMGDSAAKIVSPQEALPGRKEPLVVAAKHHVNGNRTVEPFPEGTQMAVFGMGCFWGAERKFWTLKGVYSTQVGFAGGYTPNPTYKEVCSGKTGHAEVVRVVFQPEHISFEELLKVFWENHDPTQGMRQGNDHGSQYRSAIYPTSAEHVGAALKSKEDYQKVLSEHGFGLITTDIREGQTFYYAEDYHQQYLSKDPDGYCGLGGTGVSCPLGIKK

Activity calls are given as the source filed them.

As usually defined, the AC50 is the concentration at which the activity in the assay is half-maximal. For orientation: EC50 means the concentration at which the effect is half-maximal. Usually IC50 stands for the concentration that gives 50% inhibition.

Chain of Hexokinase-1 (P19367 whole entry): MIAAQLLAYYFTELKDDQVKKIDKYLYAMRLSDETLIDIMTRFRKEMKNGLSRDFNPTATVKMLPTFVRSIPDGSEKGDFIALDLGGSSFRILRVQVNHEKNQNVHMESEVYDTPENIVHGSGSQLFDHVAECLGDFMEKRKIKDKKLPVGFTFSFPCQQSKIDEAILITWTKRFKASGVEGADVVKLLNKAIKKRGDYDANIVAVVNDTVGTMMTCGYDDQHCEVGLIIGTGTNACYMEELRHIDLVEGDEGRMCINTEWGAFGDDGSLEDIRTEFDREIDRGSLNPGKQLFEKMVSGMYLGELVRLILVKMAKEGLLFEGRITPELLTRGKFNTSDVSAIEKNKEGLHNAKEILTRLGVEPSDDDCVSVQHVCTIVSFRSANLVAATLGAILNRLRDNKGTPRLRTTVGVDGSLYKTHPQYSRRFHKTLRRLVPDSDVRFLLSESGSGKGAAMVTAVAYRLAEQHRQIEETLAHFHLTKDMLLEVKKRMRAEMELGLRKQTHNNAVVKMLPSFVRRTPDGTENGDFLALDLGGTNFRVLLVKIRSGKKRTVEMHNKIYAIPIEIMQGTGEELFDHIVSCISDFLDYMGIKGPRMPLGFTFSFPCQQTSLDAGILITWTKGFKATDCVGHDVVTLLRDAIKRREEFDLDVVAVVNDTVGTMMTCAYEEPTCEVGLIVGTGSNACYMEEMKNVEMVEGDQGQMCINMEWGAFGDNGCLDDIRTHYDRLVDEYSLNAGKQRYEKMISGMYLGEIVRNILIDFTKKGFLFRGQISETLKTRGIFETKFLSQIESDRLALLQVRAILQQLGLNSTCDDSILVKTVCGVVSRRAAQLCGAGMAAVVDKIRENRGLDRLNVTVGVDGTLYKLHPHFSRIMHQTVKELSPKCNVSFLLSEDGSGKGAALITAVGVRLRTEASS
Chain of Phospholipase D2 (O14939 whole entry): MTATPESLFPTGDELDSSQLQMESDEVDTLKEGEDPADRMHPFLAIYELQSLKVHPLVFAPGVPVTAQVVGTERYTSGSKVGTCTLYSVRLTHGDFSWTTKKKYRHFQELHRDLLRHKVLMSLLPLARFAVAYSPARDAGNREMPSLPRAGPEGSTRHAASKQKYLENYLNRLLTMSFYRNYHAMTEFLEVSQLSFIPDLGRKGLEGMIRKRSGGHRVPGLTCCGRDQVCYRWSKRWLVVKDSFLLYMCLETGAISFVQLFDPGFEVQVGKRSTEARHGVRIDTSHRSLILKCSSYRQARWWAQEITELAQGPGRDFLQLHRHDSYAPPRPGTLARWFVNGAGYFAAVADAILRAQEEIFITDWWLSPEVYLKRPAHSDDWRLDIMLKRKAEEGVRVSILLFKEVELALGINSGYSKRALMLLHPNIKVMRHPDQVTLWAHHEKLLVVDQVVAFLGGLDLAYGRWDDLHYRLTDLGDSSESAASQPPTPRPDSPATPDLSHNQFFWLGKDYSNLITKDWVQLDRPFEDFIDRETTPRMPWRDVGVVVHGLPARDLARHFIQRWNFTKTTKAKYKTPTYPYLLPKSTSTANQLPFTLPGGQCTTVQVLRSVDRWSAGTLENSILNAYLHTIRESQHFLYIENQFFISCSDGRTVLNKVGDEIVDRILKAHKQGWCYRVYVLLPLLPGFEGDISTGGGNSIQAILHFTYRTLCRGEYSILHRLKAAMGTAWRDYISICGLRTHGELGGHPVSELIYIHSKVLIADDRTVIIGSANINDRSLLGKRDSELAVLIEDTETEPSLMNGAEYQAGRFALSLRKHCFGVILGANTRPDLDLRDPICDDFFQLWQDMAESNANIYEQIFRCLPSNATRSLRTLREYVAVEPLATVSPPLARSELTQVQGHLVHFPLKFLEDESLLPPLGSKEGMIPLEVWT

With `Cn1c(/C(C#N)=C/c2ccc(-c3ccc(S(N)(=O)=O)cc3)o2)nc2ccccc21`, the AC50 in the assay with A-375 [1] and in the assay on A-375 [2] was > 11 µM (active) each time.

As for `O=C(O)CCCc1nc(-c2ccc(Cl)cc2)no1`, the values for the EC50 in assay [3], in assay [4] and in assay [6] were 27.1 µM (active), 16.2 µM (active) and 23.1 µM (active), respectively. The AC50 in the assay on Escherichia coli [5] was 39 µM (active).

As to `Cc1nnc(SCc2ccccc2CSc2nnc(C)s2)s1`, the AC50 in the assay with Escherichia coli [7] was 111 µM (active).

As to `CCCc1sc(N/N=C/c2ccccn2)nc1-c1ccc(Br)cc1`, the AC50 in assay [8] was 32.3 µM (active); in the assay with HEK293, 22.3 µM (active); in the assay with INS1, 8.41 µM (active). The EC50 in [9] was 442 nM (active); in the assay with Streptococcus it was 8.45 µM (active); at Streptokinase A, > 150 µM (not active); in assay [10], 202 nM (active); in assay [11], 2.38 µM (active).

On to `Cc1ccc(N2CCN(C(=O)c3ccc(Cl)cc3)CC2)nn1`, for which the AC50 in the assay on Candida albicans [12] was 8.19 µM (active); with Candida albicans [13], 103 µM (active); in the assay with Candida albicans [14], 4.41 µM (active); with Candida albicans [15], 1.64 µM (active).

As to `COc1ccc2c(c1)C(NC(C)=O)C(=O)N2Cc1ccccc1` (stereo unspecified), the IC50 on Hexokinase-1 and on Hexokinase HKDC1 was > 80 µM (inactive) each time.

For `C[C@@H](CN1CCC2(CC1)C(=O)NCN2c1ccc(F)c(F)c1)NC(=O)c1ccc(F)cc1`, the IC50 on Phospholipase D2 is 260 nM (active); at Phospholipase D1 it was 104 nM (active).

`O=C1c2ccccc2-c2nnc(-c3ccccc3)cc21`: the EC50 on Beta-galactosidase was > 40 µM (inactive); in assay [17], > 104 µM (inactive). The IC50 in [16] was 7.43 µM (active).

These data come from ChEMBL document CHEMBL1201862, “PubChem BioAssay data set” (2004).
